Experimental data taken from the supplement of paper PMC10307832.

Key:
Assay in all cases: relative viability (nuclei count vs DMSO), 5 days (fraction); higher = more cells survive
[1] = compound: C=CCn1c(=O)c2cnc(Nc3ccc(N4CCN(C)CC4)cc3)nc2n1-c1cccc(C(C)(C)O)n1 [Adavosertib]
How it was run: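 Viability here means nuclei in treated wells divided by nuclei in vehicle wells, reported as the median across plates. Only plates with control CV below 25% and at least one doubling passed. Lung cancer cell lines in 1536-well plates were exposed to five √10-spaced library-drug doses for 5 days and counted from 4× Hoechst images in MetaXpress.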

[2] = compound: C=CCn1c(=O)c2cnc(Nc3ccc(N4CCN(C)CC4)cc3)nc2n1-c1cccc(C(C)(C)O)n1 [Adavosertib] + Nc1nc2[nH]cc(CCc3ccc(C(=O)N[C@@H](CCC(=O)O)C(=O)O)cc3)c2c(=O)[nH]1 [Pemetrexed] (partner 0.2 µM)
How it was run: (§1)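 For relative viability, nuclei counts in treated wells were divided by those in vehicle wells. Lung cancer cell lines had been pin-tool dosed in 1536-well plates the day after seeding and cultured for 5 days, then fixed and stained in one step (final 0.05% Triton X-100, 1% formaldehyde, 1 ug/ml Hoechst) and imaged at 4×. Doses were one drug alone or a fixed anchor-drug dose plus five library-drug doses (not always all listed) in √10 steps, and values are duplicate-plate medians.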

[3] = compound: C=CCn1c(=O)c2cnc(Nc3ccc(N4CCN(C)CC4)cc3)nc2n1-c1cccc(C(C)(C)O)n1 [Adavosertib] + CC(C)C[C@H](NC(=O)[C@H](Cc1ccccc1)NC(=O)c1cnccn1)B(O)O [Bortezomib] (partner 0.002 µM)
How it was run: as §1

[4] = compound: COc1nc(N)nc2c1ncn2[C@@H]1O[C@H](CO)[C@@H](O)[C@@H]1O [Nelarabine] + N=C(N)NC(=N)NCCc1ccccc1 [Phenformin] (partner 250 µM)
How it was run: as §1

Cell Line | relative viability ([1]; 0.01 µM) | relative viability ([1]; 0.03162 µM) | relative viability ([1]; 0.1 µM) | relative viability ([1]; 0.3162 µM) | relative viability ([2]; first compound 0.01 µM) | relative viability ([2]; first compound 0.03162 µM) | relative viability ([2]; first compound 0.1 µM) | relative viability ([2]; first compound 0.3162 µM) | relative viability ([3]; first compound 0.01 µM) | relative viability ([3]; first compound 0.03162 µM) | relative viability ([3]; first compound 0.1 µM) | relative viability ([3]; first compound 0.3162 µM) | relative viability ([4]; first compound 0.01 µM) | relative viability ([4]; first compound 0.03162 µM) | relative viability ([4]; first compound 0.1 µM) | relative viability ([4]; first compound 0.3162 µM) | relative viability ([4]; first compound 1 µM)
NCI-H2347 | 1.06 | 1.05 | 1.09 | 0.983 | 0.463 | 0.422 | 0.437 | 0.439 | 0.763 | 0.911 | 0.875 | 0.763 | 0.45 | 0.574 | 0.379 | 0.445 | 0.381
NCI-H3122 | 0.987 | 0.95 | 1.04 | 1.03 | 0.211 | 0.199 | 0.188 | 0.173 | 1.12 | 0.992 | 1.11 | 1.09 | 0.381 | 0.356 |  | 0.412 | 0.358
HCC-15 | 0.979 | 1.05 | 1.07 | 1.23 | 0.221 | 0.227 | 0.216 | 0.229 | 1.01 | 0.953 | 1.07 | 1.26 | 0.582 | 0.443 | 0.426 | 0.51 | 0.498
HCC-78 | 0.85 | 0.973 | 1.03 | 1.04 | 0.921 | 0.922 | 0.959 | 0.887 | 0.542 | 0.46 | 0.529 | 0.573 | 0.709 | 0.684 |  | 0.709 | 0.701
A549 | 0.933 | 0.984 | 1 | 1.01 |  |  |  |  |  |  |  |  | 0.209 | 0.116 | 0.161 | 0.119 | 0.143
PC-3 [JPC-3] | 1.04 | 1.04 | 1.04 | 1.05 |  | 1.24 | 1.26 | 1.12 | 0.808 | 0.812 | 0.853 | 0.793 | 0.475 | 0.437 | 0.473 | 0.472 | 0.459
NCI-H1395 | 0.83 | 0.901 | 0.887 | 0.775 | 0.766 | 0.938 | 0.604 | 0.689 |  |  |  |  | 0.487 | 0.401 | 0.474 | 0.455 | 0.423
SK-MES-1 | 0.989 | 1.01 | 0.931 | 0.528 | 0.958 | 0.916 | 0.754 | 0.338 |  |  |  |  | 0.705 | 0.658 | 0.643 | 0.757 | 0.684
CAL-12T | 0.948 | 1.07 | 1.1 | 0.856 | 1.15 | 1.25 | 1.02 | 0.682 |  | 0.817 | 0.946 | 0.68 | 0.664 | 0.575 | 0.533 | 0.582 | 0.621
LCLC-97TM1 | 0.955 | 1.02 | 1.11 | 0.71 | 0.214 | 0.171 | 0.17 | 0.159 | 0.284 | 0.635 | 0.577 | 0.233 | 0.506 | 0.446 | 0.339 | 0.426 | 0.42
HOP-62 | 1.03 | 1.1 | 1.08 | 1.18 | 0.311 | 0.285 | 0.283 | 0.224 | 0.941 | 1.08 | 1.03 | 1.03 | 0.787 | 0.508 | 0.696 | 0.777 | 0.667
NCI-H1703 | 1.29 | 0.892 | 1.08 | 0.249 |  |  |  |  | 0.461 | 0.366 | 0.464 | 0.18 |  |  |  |  | 
NCI-H596 | 1.05 | 1.1 | 0.956 | 0.931 | 0.497 | 0.515 | 0.471 | 0.423 | 1.27 | 1.01 | 1 | 1.14 | 0.778 | 0.749 | 0.747 | 0.812 | 0.86
NCI-H2126 | 1.01 | 1.04 | 0.969 | 1.07 | 0.615 | 0.66 | 0.695 | 0.643 | 1.12 | 1.17 | 1.11 | 1.15 | 0.593 | 0.545 | 0.51 | 0.508 | 0.517
NCI-H2087 | 0.968 | 0.95 | 1.08 | 1.13 | 0.644 | 0.634 | 0.67 | 0.644 | 0.883 | 0.894 | 1.05 | 0.918 | 0.577 | 0.408 | 0.397 | 0.457 | 0.569
NCI-H1355 | 0.991 | 0.99 | 0.948 | 0.986 | 0.984 | 1.03 | 0.965 | 0.808 | 1.15 | 1.17 | 1.18 | 1.16 | 0.442 | 0.413 | 0.418 | 0.433 | 0.455
EBC-1 | 0.974 | 1.02 | 1.07 | 0.971 |  |  |  |  | 0.719 | 0.653 | 0.562 | 0.493 |  |  |  |  | 
ABC-1 | 0.885 | 0.893 | 0.948 | 0.96 |  |  |  |  | 0.247 | 0.329 | 0.255 | 0.332 | 0.216 | 0.212 | 0.258 | 0.231 | 0.229
NCI-H358 | 0.838 | 0.785 | 0.752 | 0.467 | 0.227 | 0.189 | 0.166 | 0.157 |  |  |  |  | 0.441 | 0.308 | 0.305 | 0.356 | 0.377
NCI-H520 | 0.948 | 0.876 | 1 | 0.879 | 0.762 | 0.686 | 0.616 | 0.297 | 0.708 | 0.803 | 0.553 | 0.535 | 0.811 | 0.343 | 0.638 | 0.806 | 0.513
NCI-H2405 | 0.924 | 0.993 | 1.02 | 1.04 |  | 1.1 | 0.899 | 1.05 | 0.984 | 1.01 | 1.01 | 1.07 | 0.385 | 0.395 | 0.357 | 0.383 | 0.26
